{"source": "patent US8691514B2", "about": "“Method for selective control of helper T cell function” (Japan Science and Technology Agency, priority 2008, dated 2014)", "origin": "cited, not measured here", "key": {"CD4 positive T cell": {"test_system": "CD4 positive T cell", "conditions": "treated with GlcCer synthetase inhibitor; Nagafuku et al. 2003, Blank et al. 2005"}, "CD8 positive T cell": {"test_system": "CD8 positive T cell", "conditions": "treated with GlcCer synthetase inhibitor; Nagafuku et al. 2003, Blank et al. 2005"}}, "data": [{"molecule": "CCCCCCCCCC(=O)N[C@H](CN1CCOCC1)[C@H](O)c1ccccc1.Cl", "note": "[D-PDMP, D-threo-1-phenyl-2-decanoylamiono-3-morpholino-1-prppanol.HCl]", "values": [{"measurement": "function of the CD4 positive T cell", "setting": "CD4 positive T cell", "value": "suppressed"}, {"measurement": "function of the CD8 positive T cell", "setting": "CD8 positive T cell", "value": "suppressed"}]}]}
